The values that follow come from patent publication US7229987B2, “Multicyclic compounds for use as melanin concentrating hormone antagonists in the treatment of obesity and diabetes” (Eli Lilly and Company, priority 2002, dated 2007).

Data set [1] addresses T1, human MCHR1 (Homo sapiens, UniProt Q99705).
T1 construct: The full-length cDNA for human MCHR1 was cloned from a human adult brain cDNA library; expressed in transfected cells; host or cells: AV12 cells previously transfected with Gα15
Nature of the data set: 125I-MCH competitive binding assay (SPA) with clone 43 membranes. Particulars: competition with 125I-MCH, clone 43 membranes (AV12 cells expressing human MCHR1); Ki from IC50 by Cheng-Prusoff; tested in duplicate. The source says:
(§1) The full-length cDNA for human MCHR1 was cloned from a human adult brain cDNA library (Edge Biosystems, Cat. 38356) by standard polymerase chain reaction (PCR) methodology employing the following primers: sense, 5′-GCCACCATGGACCT GGAAGCCTCGCTGC-3′; anti-sense, 5′-[…]-3′.
(§2) In order to generate cell lines stably expressing MCHR1, the insert was then subcloned into the Xba I and Not I sites of pcDNA(+)-3.1-neomycin (Invitrogen). After purification by Qiagen Maxi-prep kit (QIAGEN, Inc.), the plasmid was transfected by Fugene 6 (Roche Applied Science) into AV12 cells that had been previously transfected with the promiscuous G protein Gα15. The transfected cells were selected by
(§3) Both the ^125I-MCH binding and functional GTPγ^35S binding assays employed membranes isolated from a clone designated as clone 43. Typically, cells from 20 confluent T225 flasks were processed by washing the monolayers in cold phosphate-buffered saline (PBS), scraping the cells into same and re-suspending the cell pellet in 35 ml of 250 mM Sucrose, 50 mM HEPES, pH 7.5, 1 mM MgCl2, 24 μg/ml DNase I, and protease inhibitors (1 Complete® tablet, per 50 ml of buffer prepared, Roche Diagnostics). After incubation on ice for 5 min, cells were disrupted with 20–25 strokes of a Teflon/Glass homogenizer attached to an overhead motorized stirrer, and the homogenate was centrifuged at 40,000 rpm in Beckman Type 70.1 Ti rotor. The pellets were re-suspended in 250 mM Sucrose, 50 mM HEPES, pH 7.5, 1.5 mM CaCl2, 1 mM MgSO4 and protease inhibitors by Teflon/Glass homogenization to achieve a protein concentration of ˜3–5 mg/ml (Pierce BCA assay with Bovine serum albumin as standard).
Aliquots were stored at −70° C. Binding of compounds to MCHR1 was assessed in a competitive binding assay employing ^125I-MCH, compound and clone 43 membranes. Briefly, assays are carried out in 96-well Costar 3632 white opaque plates in a total volume of 200 μl containing 25 mM HEPES, pH 7.5, 10 mM CaCl2, 2 mg/ml bovine serum albumin, 0.5% dimethyl sulfoxide (DMSO), 4 μg of clone 43 membranes, […] ^125I-MCH (NEN), 1.0 mg of wheat germ agglutinin scintillation proximity assay beads (WGA-SPA beads, Amersham) and a graded dose of test compound. Non-specific binding is assessed in the presence of 1 μM unlabeled MCH. Bound ^125I-MCH is determined by placing sealed plates in a Microbeta Trilux (Wallac) and counting after a 5 hr delay.
IC50 values (defined as the concentration of test compound required to reduce specific binding of ^125I-MCH by 50%) are determined by fitting the concentration-response data to a 4-parameter model (max response, min response, Hill coefficient, IC50) using Excel. Ki values are calculated from IC50 values using the Cheng-Prusoff approximation as described by Cheng et al. (Relationship between the inhibition constant (Ki) and the concentration of inhibitor which causes 50% inhibition (IC50) of an enzymatic reaction, Biochem. Pharmacol., 22: 3099–3108 (1973)). The Kd for ^125I-MCH is determined independently from a saturation binding isotherm.

Data set [2] concerns the target T1, human MCHR1. Put plainly: Inhibition of MCH-stimulated GTPγ35S binding to clone 43 membranes (functional antagonism). The data set is classed as biochemical. Particulars: inhibition of GTPγ35S binding stimulated by 40 nM MCH (about EC90), Kb from IC50 by modified Cheng-Prusoff (Leff and Dougal), tested in duplicate.
Source text: as §1, §2, §3
Functional antagonism of MCH activity is assessed by measuring the ability of test compound to inhibit MCH-stimulated binding of GTPγ^35S to clone 43 membranes. Briefly, assays are carried out in Costar 3632 white opaque plates in a total volume of 200 μl containing 25 mM Hepes, pH 7.5, 5 mM MgCl2, 10 μg/ml saponin, 100 mM NaCl, 3 μM GDP, 0.3 nM GTPγ^35S, 40 nM MCH (approximately equal to EC90), 20 μg of clone 43 membranes, 1.0 mg of wheat germ agglutinin scintillation proximity assay beads (WGA-SPA beads, Amersham) and a graded dose of test compound. The plates are sealed and left for 16–18 hrs at 4° C. After a 1 hr delay to allow plates to equilibrate to ambient temperature, bound GTPγ^35S is determined by counting in a Microbeta Trilux (Wallac).
IC50 values (defined as the concentration of test compound required to reduce MCH-stimulated GTPγ^35S binding by 50%) are determined by fitting the concentration-response data to a 4-parameter model (max response, min response, Hill coefficient, IC50) using Excel. Kb values are calculated from IC50 values using a modification of the Cheng-Prusoff approximation as described by Leff and Dougal (Further concerns over Cheng-Prusoff analysis, Trends Pharmacol. Sci. 14: 110–112 (1993)) after verifying competitive antagonism by Schild analysis. The EC50 for MCH alone is determined independently. The MCHR1 binding and functional activities of 24 compounds in the oxadiazole series (tested in duplicate) are shown in Table 1

For data set [3], the system named is Diet-induced obese male Long-Evans rats. Nature of the data set: Block of MCH-stimulated food intake after intracerebroventricular injection. In kind it is in vivo, rat. Particulars: 82 nmol compound plus 2.1 nmol MCH, ICV; food intake at 2, 4 and 6 hours after injection; n=6 per group; p<0.05 vs. MCH alone; FIG. 1. As for the experimental part: Diet-induced obese male Long-Evans rats (Harlan, Ind.) weighing 500–550 g at time of surgery were anesthetized with isoflurane. Stainless steel cannula guides (5 mm length, 26 gauge, Plastics One, Va.) were stereotaxically implanted in the lateral ventricle anteroposteriority: 0.8 mm caudal to bregma; and lateral: 1.5 mm from midline suture. Animals were individually housed in a temperature regulated room (24° C.) with a reverse 12 hour light/dark cycle (dark 10:00/22:00). Water and food (Teklad 95217, Harlan, Wis.) were available ad libitum. After surgery, animals were allowed to recover 7 days before experimental use. On test day, food was removed 1 hr prior to testing and animals (4 groups, n=6 per group) were injected between 0900 and 1000 with 5 μl of vehicle (artificial CSF), 2.1 nmol MCH, 82 nmol of compound of example 136, and MCH plus compound of example 136. Cumulative food intake was measured at 2, 4 and 6 hours after injection.

T1 sequence (Q99705 whole entry): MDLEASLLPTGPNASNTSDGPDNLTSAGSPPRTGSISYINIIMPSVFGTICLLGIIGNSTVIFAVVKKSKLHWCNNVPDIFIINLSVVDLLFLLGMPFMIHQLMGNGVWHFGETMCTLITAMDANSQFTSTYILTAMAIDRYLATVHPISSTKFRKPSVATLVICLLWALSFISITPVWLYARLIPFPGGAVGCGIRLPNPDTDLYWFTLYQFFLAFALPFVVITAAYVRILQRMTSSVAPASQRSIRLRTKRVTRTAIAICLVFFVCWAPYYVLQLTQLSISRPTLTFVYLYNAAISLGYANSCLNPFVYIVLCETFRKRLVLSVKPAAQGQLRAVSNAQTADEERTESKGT

One may read the Ki as a measure of affinity in units of concentration, obtained from inhibition or displacement. Usually Kb stands for the affinity of an antagonist, worked out from how it opposes an agonist. Turning to `c1ccc(OCCSCc2nnc(-c3ccc(OCCN4CCCCC4)cc3)o2)cc1` [drawing 45], the Ki at human MCHR1 [1] was 9.2 nM. On human MCHR1 [2], this molecule had a Kb of 19.8 nM.
For the molecule `CN(C)CCOc1ccc(-c2nnc(CSCCOc3ccccc3)o2)cc1` [drawing 41], at human MCHR1 [1], the affinity corresponds to a Ki of 5.3 nM. The Kb on human MCHR1 [2] turned out to be 13.6 nM.
`c1ccc(OCCSCc2nnc(-c3ccc(OCc4cccnc4)cc3)o2)cc1` [drawing 61] gave a Ki on human MCHR1 [1] of 2900 nM. The Kb on human MCHR1 [2] turned out to be 6890 nM.
`CN(C)CCCOc1ccc(-c2nnc(CSCc3cc4ccccc4o3)o2)cc1`: the inhibitory constant (Ki) on human MCHR1 [1] is 16.1 nM. On human MCHR1 [2], this molecule returned a Kb of 35.4 nM.
Consider `CN(C)CCCOc1ccc(-c2nnc(CSCc3ccc4ccccc4c3)o2)cc1`, for which, on human MCHR1 [1], the affinity corresponds to a Ki of 22.4 nM. Moreover, on human MCHR1 [2], the Kb came to 50.6 nM.
On to `c1ccc(OCCSCc2ncc(-c3ccc(OCCN4CCCC4)cc3)o2)cc1`, for which, at human MCHR1 [1], the affinity, expressed as Ki, was 5.8 nM. The molecule also registered a Kb on human MCHR1 [2] of 12 nM.
Turning to `CC(C)N(CCCCOc1ccc(-c2nnc(CSCCOc3ccccc3)o2)cc1)C(C)C` [drawing 59], the affinity on human MCHR1 [1], expressed as Ki, was 63.3 nM. Moreover, the Kb on human MCHR1 [2] is 52.1 nM.
Molecule `CN(C)CCOc1ccc(-c2cnc(CSCCOc3ccccc3)o2)cc1` displayed a Ki at human MCHR1 [1] of 13.3 nM. The same molecule had a Kb on human MCHR1 [2] of 9.4 nM.
The matching figures for `C(=C\c1ccc(-c2nnc(CSCCOc3ccccc3)o2)cc1)/CN1CCCC1` [drawing 38]: 1.9 nM and 6 nM.
For the molecule `CN(C)CCCOc1ccc(-c2nnc(CSCCOc3ccccc3)o2)cc1` [drawing 52], the affinity on human MCHR1 [1] corresponds to a Ki of 16 nM. At human MCHR1 [2], this molecule had a Kb of 11.9 nM.
The matching figures for `O=C(NCCN1CCCC1)Nc1ccc(-c2nnc(CSCCOc3ccccc3)o2)cc1`: 9 nM and 20 nM.
As for `C(=C\c1ccc(-c2nnc(CSCCOc3ccccc3)o2)cc1)/CN1CCCC1` [Example 136, (E)-2-{[(2-phenoxyethyl)thio]methyl}-5-[4-(3-pyrrolidinopropen-1-yl)phenyl]-1,3,4-oxadiazole], in data set [3], the “effect on orexigenic effect of exogenous MCH (cumulative food intake)” value is given as “completely blocked the orexigenic effect of exogenous MCH”.
On to `c1ccc(OCCSCc2nnc(-c3ccc(OCCCN4CCCC4)cc3)o2)cc1` [drawing 51], for which, on human MCHR1 [1], affinity was put at a Ki of 14.3 nM. Moreover, the antagonist equilibrium constant (Kb) at human MCHR1 [2] was 18.1 nM.
In the same order, the values of `O=C(NCCN1CCCCC1)Nc1ccc(-c2nnc(CSCCOc3ccccc3)o2)cc1` [drawing 42] are 5.6 nM and 14.7 nM.
In the same order, the values of `CN(C)CCCOc1ccc(-c2cnc(CSCCOc3ccccc3)o2)cc1` are 4.3 nM and 15 nM.
`c1ccc(OCCSCc2ncc(-c3ccc(OCCN4CCCCC4)cc3)o2)cc1` showed a Ki on human MCHR1 [1] of 11.6 nM. For the same molecule, the Kb on human MCHR1 [2] was found to be 7.3 nM.
With `CN(C)CCNC(=O)Nc1ccc(-c2nnc(CSCCOc3ccccc3)o2)cc1`, the Ki at human MCHR1 [1] was 10.4 nM. The same molecule registered a Kb at human MCHR1 [2] of 16.2 nM.
For the molecule `CN1CCC[C@@H]1CCOc1ccc(-c2nnc(CSCCOc3ccccc3)o2)cc1`, the Ki at human MCHR1 [1] was found to be 12.9 nM. The Kb on human MCHR1 [2] was determined as 39.6 nM.
In the same order, the values of `CN(C)CCCOc1ccc(-c2nnc(CSCc3cc4ccccc4s3)o2)cc1` are 48.4 nM and 139 nM.
The molecule `c1ccc(OCCSCc2nnc(-c3ccc(OCCCCN4CCCCCC4)cc3)o2)cc1` [drawing 57] yielded a Ki at human MCHR1 [1] of 37.9 nM. This molecule also showed a Kb at human MCHR1 [2] of 31.3 nM.
In the same order, the values of `c1ccc(OCCSCc2ncc(-c3ccc(OCCCN4CCCC4)cc3)o2)cc1` are 10.2 nM and 16.5 nM.
The matching figures for `CC(C)N(CCCOc1ccc(-c2nnc(CSCCOc3ccccc3)o2)cc1)C(C)C` [drawing 60]: 140 nM and 145 nM.
In the same order, the values of `CN(C)C/C=C/c1ccc(-c2nnc(CSCCOc3ccccc3)o2)cc1` are 3.7 nM and 11.6 nM.
Molecule `c1ccc(OCCSCc2ncc(-c3ccc(OCCCN4CCCCC4)cc3)o2)cc1` showed a Ki on human MCHR1 [1] of 17.9 nM. The same molecule returned a Kb at human MCHR1 [2] of 15.9 nM.
In the same order, the values of `CN(C)CCCOc1ccc(-c2coc(CSCCOc3ccccc3)n2)cc1` are 35 nM and 41.5 nM.
For orientation: melting point means the temperature of the solid-liquid transition. On to `c1ccc(OCCSCc2nnc(-c3ccc(OCCN4CCCC4)cc3)o2)cc1` [Example 76, 2-(2-phenoxy-ethylsulfanylmethyl)-5-[4-(2-pyrrolidin-1-yl-ethoxy)-phenyl]-[1,3,4]oxadiazole], for which the melting point was found to be 65 °C.
On the same count and under the same terms, in the case of `CN(C)CCCOc1ccc(-c2nnc(CSCCOc3cccc(OC(F)(F)F)c3)o2)cc1` [Example 276, [3-(4-{5-[2-(3-trifluoromethoxy-phenoxy)-ethylsulfanylmethyl]-[1,3,4]oxadiazol-2-yl}-phenoxy)-propyl]-dimethyl-amine] it was 46 to 46.5 °C; in that of `c1ccc(OCCSCc2nnc(-c3ccc(OCCCN4CCSCC4)cc3)o2)cc1` [Example 82, 4-(3-{4-[5-(2-phenoxy-ethylsulfanylmethyl)-[1,3,4]oxadiazol-2-yl]-phenoxy}-propyl)-thiomorpholine], 85 °C.
